Among the data in US6511995B1, “Pyridine derivative and pharmaceutical containing the same” (Otsuka Pharmaceutical Co., Ltd., priority 1998, dated 2003) are IC50 values, retold here.

Molecules are shown by their SMILES.

The subject of the test is Human Ito cells (LI90). The test is described as follows: Test for inhibition of collagen synthesis (3H proline labeling, hTGF β-1 treated cells). It counts as cell-based. The note with it: cultured with test compound in MEM containing 10 PM hTGF β-1 and 2% PDS for 16 hours, 3H proline labeling 24 hours, read-out: IC50 (μM), concentration at which the collagen synthesis is inhibited by 50% (T/C = 0.5). Here is the method: The pyridine derivatives (test compounds) obtained in Examples 1-2, 9-10, 21, 25, 29, 33-37, 39, 42, 44 and 46 were subjected to the following collagen synthesis test.
Test for Inhibition of Collagen Synthesis
Plasma obtained by centrifugation of rabbit blood was centrifuged again to remove platelets, and dialysis of the resulting supernatant was carried out against a Phosphate Buffered Saline (PBS) containing 0.01% (w/v) calcium chloride and 0.01% (w/v) magnesium chloride. Then, centrifugation was carried out to remove the residue and the resulting supernatant was immobilized at 56° C. for 30 minutes. The immobilized supernatant was sterilized by using a filter (0.22 μm) to prepare Plasma Derived Serum (PDS).
Human Ito cells (LI90) were plated in DULBECCO's modified eagle medium (DMEM) containing 10% fetal bovine serum and cultured in an incubator in the presence of 5% carbon dioxide (CO2) for 24 hours at 37° C., and then washed with PBS and cultured in Eagle's minimum essential medium (MEM) containing 2% PDS for additional 3 days. The cultured cells were washed with PBS and cultured together with the test compounds in MEM containing 10 PM hTGF (transforming growth factor) β-1 (containing 2% PDS based on the total amount of MEM) for 16 hours. Then, the cultured L190 was washed with PBS and RI (radioisotope) labeling was carried out in MEM containing ^3H proline as a radioactive labeled compound and 0.25 mM ascorbic acid for 24 hours. This cultured supernatant was precipitated by using trichloroacetic acid (TCA), and then the radioactivity in an […] fraction was measured and the resulting measured value was taken as collagen synthesis activity.
By comparing the radioactivity in the cultured supernatant containing the test compound with the radioactivity in the cultured supernatant containing no test compound (control), the collagen synthesis inhibition activity (T/C) was calculated by the following equation:
T/C=(radioactivity in cultured supernatant containing test compound)/(radioactivity in cultured supernatant of control).
IC50 was determined as the concentration (μM) at which the collagen systhesis can be inhibited by 50% (concentration of the test compound wherein C50=T/C corresponds to 0.5).
On to `CC(=O)OC1=CCc2c(Oc3ccc(NC(=O)c4ccc(Cl)c(Cl)c4)cn3)cccc21` [Example 46, N1-{6-[(3-acetoxy-1H-inden-7-yl)oxy]-3-pyridinyl}-3,4-dichlorobenzamide], for which the IC50 turned out to be 1.12 µM.
The result for `CC1(c2ccc(Oc3ccc(NC(=O)c4ccc(Cl)c(Cl)c4)cn3)cc2)OCCO1` [Example 33, 3,4-dichloro-N1-{6-[4-(2-methyl-1,3-dioxolane-2-yl)phenoxy]-3-pyridinyl}benzamide] reads 3.88 µM; that for `CC(=O)c1ccc(Oc2ccc(NC(=O)c3ccc(Cl)c(Cl)c3)cn2)cc1C` [Example 21, N1-[6-(4-acetyl-3-methylphenoxy)-3-pyridinyl]-3,4-dichlorobenzamide], 2.92 µM; that for `O=C(Nc1ccc(Oc2cccc3c2CCC3)nc1)c1ccc(Cl)c(Cl)c1` [Example 25, 3,4-dichloro-N1-(6-[(2,3-dihydro-1H-inden-4-yl)oxy]-3-pyridinyl}benzamide], 2.7 µM.
The result for `O=C(Nc1ccc(Oc2cccc3c2CC=C3)nc1)c1ccc(Cl)c(Cl)c1` [Example 35, 3,4-dichloro-N1-{6-[(1H-inden-7-yl)oxy]-3-pyridinyl}benzamide] reads 2.43 µM; that for `Cc1cccc(Oc2ccc(NC(=O)c3ccc(Cl)c(Cl)c3)cn2)c1C` [Example 29, 3,4-dichloro-N1-[6-(2,3-dimethylphenoxy)-3-pyridinyl]benzamide], 1.58 µM; that for `CC(=O)c1ccc(Oc2ccc(C(=O)Nc3ccc(C(F)(F)F)cc3)cn2)cc1` [Example 44, 6-(4-acetylphenoxy)-N3-[4-(trifluoromethyl)phenyl]nicotinamide], 0.92 µM.
Regarding `CC(O)c1ccc(Oc2ccc(NC(=O)c3ccc(Cl)c(Cl)c3)cn2)cc1` (stereo not shown) [Example 36, 3,4-dichloro-N1-{6-[4-(1-hydroxyethyl)phenoxy]-3-pyridinyl}benzamide], the IC50 turned out to be 3.72 µM.
Next, `O=C(Nc1ccc(Oc2ccc3c(c2)C(=O)CCCC3)nc1)c1ccc(Cl)c(Cl)c1` [Example 10]: 2.6 µM.
The result for `O=C(Nc1ccc(Cl)c(Cl)c1)c1ccc(Oc2cccc3c2CCCC3=O)nc1` [Example 42, N3-(3,4-dichlorophenyl)-6-[(5-oxo-5,6,7,8-tetrahydro-1-naphthalenyl)oxy]nicotinamide] reads 2.29 µM; that for `O=C(Nc1ccc(Cl)c(Cl)c1)c1ccc(Oc2cccc3c2CCC3=O)nc1` [Example 37, N3-(3,4-dichlorophenyl)-6-[(1-oxo-2,3-dihydro-1H-inden-4-yl)oxy]nicotinamide], 2.52 µM.
The result for `O=C(Nc1ccc(Oc2cccc3c2CCC3=O)nc1)c1ccc(C(F)(F)F)cc1` [Example 2, N1-{6-[(1-oxo-2,3-dihydro-1H-inden-4-yl)oxy]-3-pyridinyl}-4-(trifluoromethyl)benzamide] reads 2.9 µM; that for `O=C(Nc1ccc(Oc2cccc3c2CCC3O)nc1)c1ccc(Cl)c(Cl)c1` (stereo not shown) [Example 34, 3,4-dichloro-N1-{6-[(1-hydroxy-2,3-dihydro-1H-inden-4-yl)oxy]-3-pyridinyl}benzamide], 2.15 µM; that for `O=C(Nc1ccc(C(F)(F)F)cc1)c1ccc(Oc2cccc3c2CCC3=O)nc1` [Example 39, 6-[(1-oxo-2,3-dihydro-1H-inden-4-yl)oxy]-N3-[4-(trifluoromethyl)phenyl]nicotinamide], 0.55 µM.
On to `O=C(Nc1ccc(Oc2cccc3c2CCCC3=O)nc1)c1ccc(Cl)c(Cl)c1` [Example 9, 3,4-dichloro-N1-{6-[(5-oxo-5,6,7,8-tetrahydro-1-naphthalenyl)oxy]-3-pyridinyl}benzamide], for which the IC50 came to 2.34 µM.
Next, `O=C(Nc1ccc(Oc2cccc3c2CCC3=O)nc1)c1ccc(Cl)c(Cl)c1` [Example 1, 3,4-dichloro-N1-{6-[(1-oxo-2,3-dihydro-1H-inden-4-yl)oxy]-3-pyridinyl}benzamide]: 2.14 µM.
